# Laboratory results: paper PMC11117723, “Benzene with Alkyl Chains Is a Universal Scaffold for Multivalent Virucidal Antivirals” (ACS Central Science, 2024)
# Read-outs that look alike come from different tables or passages of the source.
# How the values were obtained:
# [1] = Vero cell cytotoxicity (MTS assay); format: cell-based; conditions: African green monkey, Vero cells, read-out: CC50 (95% CI), Vero cells
# [2] = test system: HSV-2; assay: HSV-2 inhibition (dose response) plaque assay on Vero cells; format: cell-based; conditions: for EC50: Vero cells, virus pre-incubated with compound 1 h, read-out: HSV-2 EC50 (95% CI)
# [3] = test system: SARS-CoV-2 (Alpha); assay: SARS-CoV-2 (alpha strain) inhibition plaque assay on Vero E6 cells; format: cell-based; conditions: Severe acute respiratory syndrome coronavirus 2, Vero C1008, read-out: SARS-CoV-2 (Alpha) EC50 (95% CI)
# [4] = in vitro; conditions: African green monkey
# [5] = test system: HIV-1 (YU-2); assay: HIV-1 (YU-2) inhibition assay on TZM-bl cells (luciferase); format: cell-based; conditions: Human immunodeficiency virus 1, read-out: HIV-1 EC50 (95% CI)
# [6] = TZM-bl cell cytotoxicity (WST-1); conditions: human
# [7] = test system: GFP-EBV B95-8 (EBV); assay: microbe, parasite or virus in culture; format: cell-based, Epstein–Barr virus (EBV); conditions: human gammaherpesvirus 4, read-out: EBV EC50 (95% CI)
# [8] = test system: GFP-KSHV (KSHV); assay: microbe, parasite or virus in culture; format: cell-based, Kaposi’s sarcoma-associated herpesvirus (KSHV); conditions: Human gammaherpesvirus 8, HEK-293T, read-out: KSHV EC50 (95% CI)
# [9] = HEK293T cell cytotoxicity (Zombie NIR flow cytometry); conditions: human
# [10] = test system: Influenza A/Netherlands/2009 (H1N1); assay: H1N1 inhibition assay on MDCK cells (ICC); format: cell-based; conditions: Influenza A virus, read-out: H1N1 EC50 (95% CI)
# [11] = test system: SARS-CoV-2; assay: SARS-CoV-2 Syrian hamster model, intranasal instillation from 12 h; format: in vivo; conditions: B3C9S solution by intranasal instillation, 1.5, 4.5, 6 mg/kg/day from 12 h
# Experimental: Control Control *** Control
# 80 Placebo 80 Placebo 80 Placebo
# Days post infection Days post infection Days post infection
# Figure S10. Body weight of Syrian hamsters treated with 1.5mg/kg/day B3C9S (a), 4.5mg/kg/day B3C9S (b), 6mg/kg/day B3C9S (c) by intranasal instillation. 25 female Syrian hamsters were randomly assigned into five groups (control, placebo and three doses of B3C9S), each containing 5 hamsters. At day 0, each hamster was weighed and inoculated intranasally with 100 μl PBS (control) or 100 μl […] SARS-CoV-2 (placebo and B3C9S). Starting from 12 h after the inoculation, the hamsters in the placebo group and the […]
# μg/μl) every day, respectively. The body weight of each hamster was measured every 12 h.
# The weight measurements of each hamster were normalized by the initial weight and plotted against time post infection. The error bars represent the means ± standard deviations (n = 5). The asterisks represent the p value (*, <0.05; **, <0.01; ***, <0.001) calculated by two-tailed unpaired t test.
# (also on this page, place not known: Body weight (%) Body weight (%) Body weight (%))
# [12] = Raji cell cytotoxicity (Zombie NIR flow cytometry); conditions: human
# [13] = test system: SARS-CoV-2 Alpha; format: in vivo, Syrian hamster
# [14] = in vitro; conditions: dog
# [15] = test system: SARS-CoV-2 (Omicron); assay: SARS-CoV-2 Omicron dose-response assay on Vero E6 cells; format: cell-based; conditions: Severe acute respiratory syndrome coronavirus 2, Vero C1008, read-out: SARS-CoV-2 (Omicron) EC50 (95% CI)
# [16] = test system: TZM-bl cells; assay: TZM-bl cell cytotoxicity (WST-1); conditions: read-out: CC50 (95% CI), TZM-bl cells; HIV-1 line
# [17] = test system: Vero cells; assay: Vero cell cytotoxicity (MTS assay); format: cell-based; conditions: 24 h, read-out: CC50 (95% CI), Vero cells
# [18] = test system: Vero E6 cells; conditions: read-out: CC50 (95% CI), Vero E6 cells, SARS-CoV-2 (Alpha) line
Structure (SMILES),CC50 at 24 h [1] [µM],"EC50 ([2]; Human alphaherpesvirus 2, Vero) [µM]",EC50 [3] [µM],CC50 [4] [µM],EC50 [5] [µM],also measured
O=c1n(CCSCCCCCCCCCOS(=O)(=O)O)c(=O)n(CCSCCCCCCCCCOS(=O)(=O)O)c(=O)n1CCSCCCCCCCCCOS(=O)(=O)O [A3C9S],221,20.1,23.1,39.5,,
O=S(=O)(O)OCCCCCCSCc1cc(CSCCCCCCOS(=O)(=O)O)cc(CSCCCCCCOS(=O)(=O)O)c1 [B3C6S],> 530,78.4,195,> 530,5.47,CC50 at 6 h ([6]; TZM-bl cells): > 133 µM
O=S(=O)(O)OCCCCCCCCCSCc1cc(CSCCCCCCCCCOS(=O)(=O)O)cc(CSCCCCCCCCCOS(=O)(=O)O)c1 [B3C9S],331,7.9,1.1,14.7,6.34,"EC50 [7]: 46.5 µM; EC50 [8]: 48.2 µM; CC50 at 6 h ([6]; TZM-bl cells): > 113 µM; CC50 at 2 days ([9]; HEK293T cells): 162 µM; EC50 [10]: 5.11 µM; body weight loss of infected hamsters [11]: reduced the body weight loss; CC50 at 2 days ([12]; Raji cells): > 341 µM; EC50 [2]: 7.92 µM; efficacy with aerosol treatment compared with B6C11S ([13]; hamster, in vivo): less effective; viral titer (viral RNA) in the lungs ([13]; hamster, in vivo): significantly decreased the viral titer; viral titer (viral RNA) in the oral swab ([13]; hamster, in vivo): significantly reduced; viral titer in oral swab and lung tissues vs untreated ([13]; hamster, in vivo): No statistical difference; CC50 [14]: 16.6 µM; EC50 [15]: 1.37 µM"
O=S(=O)(O)OCCCCCCCCCCCSCc1cc(CSCCCCCCCCCCCOS(=O)(=O)O)cc(CSCCCCCCCCCCCOS(=O)(=O)O)c1 [B3C11S],384,26.2,0.84,11.2,6.44,CC50 at 6 h ([6]; TZM-bl cells): > 100 µM
O=S(=O)(O)OCCOCCOCCOCCSCc1cc(CSCCOCCOCCOCCOS(=O)(=O)O)cc(CSCCOCCOCCOCCOS(=O)(=O)O)c1 [B3PEG4S],,> 400,> 400,,,HSV-2 inhibition at 400 μM ([2]; 400 μM): No inhibition
O=S(=O)(O)OCCCCCCCCCSCc1c(CSCCCCCCCCCOS(=O)(=O)O)c(CSCCCCCCCCCOS(=O)(=O)O)c(CSCCCCCCCCCOS(=O)(=O)O)c(CSCCCCCCCCCOS(=O)(=O)O)c1CSCCCCCCCCCOS(=O)(=O)O [B6C9S],,,,,,CC50 [16]: 10.5 µM; CC50 [17]: 42.7 µM; CC50 [18]: 3.9 µM
CCc1c(CSCCCCCCOS(=O)(=O)O)c(CC)c(CSCCCCCCOS(=O)(=O)O)c(CC)c1CSCCCCCCOS(=O)(=O)O [BET3C6S],> 477,28.5,> 119,451,8.22,CC50 at 6 h [6]: > 119 µM
CCc1c(CSCCCCCCCCCOS(=O)(=O)O)c(CC)c(CSCCCCCCCCCOS(=O)(=O)O)c(CC)c1CSCCCCCCCCCOS(=O)(=O)O [BET3C9S],81.6,13.1,1.1,17,6.12,CC50 at 6 h [6]: 29.7 µM; EC50 [15]: > 104 µM
O=S(=O)(O)OCCCCCCCCCCn1cc(COc2cc(OCc3cn(CCCCCCCCCCOS(=O)(=O)O)nn3)cc(OCc3cn(CCCCCCCCCCOS(=O)(=O)O)nn3)c2)nn1 [BTA3C10S],> 371,17.1,> 93,> 929,5.25,CC50 at 6 h [6]: > 93 µM; EC50 [10]: 22.9 µM; CC50 [14]: > 930 µM
O=S(=O)(O)OCCCCCCCCCCO[C@H]1[C@H](OS(=O)(=O)O)[C@H](OCCCCCCCCCCOS(=O)(=O)O)[C@H](OS(=O)(=O)O)[C@@H](OCCCCCCCCCCOS(=O)(=O)O)[C@@H]1OS(=O)(=O)O [I3C10S],> 359,163,458,> 356,,
O=S(=O)(O)OCCCCCCCCCSCc1cccc(CSCCCCCCCCCOS(=O)(=O)O)c1CSCCCCCCCCCOS(=O)(=O)O [OB3C9S],135,18,1.4,18.4,,
O=S(=O)(O)OCCCCCCCCCSCC(COS(=O)(=O)O)(COS(=O)(=O)O)CSCCCCCCCCCOS(=O)(=O)O [P2C9S],,326,> 1300,> 1300,,
O=S(=O)(O)OCCCCCCCCCSCC(COS(=O)(=O)O)(CSCCCCCCCCCOS(=O)(=O)O)CSCCCCCCCCCOS(=O)(=O)O [P3C9S],522,24.4,10.3,413,,EC50 [15]: > 1080 µM
O=S(=O)(O)OCCCCCCCCCSCC(CSCCCCCCCCCOS(=O)(=O)O)(CSCCCCCCCCCOS(=O)(=O)O)CSCCCCCCCCCOS(=O)(=O)O [P4C9S],185,6.5,0.48,4,1.94,EC50 [7]: 33.9 µM; EC50 [8]: 20.8 µM; CC50 at 6 h [6]: 18.4 µM; CC50 at 2 days [9]: 122 µM; CC50 at 2 days [12]: > 276 µM; EC50 [2]: 6.48 µM
"CC(C)(C)[C@H](NC(=O)C(F)(F)F)C(=O)N1C[C@H]2[C@@H]([C@H]1C(=O)N[C@H](C#N)C[C@@H]1CCNC1=O)C2(C)C [nirmatrelvir, reference compound]",,,,,,"viral RNA levels in oral swab vs untreated ([13]; […], nirmatrelvir 250 mg/kg orally, P = 0.0021): significantly lower viral RNA levels; viral RNA copies in lung vs untreated ([13]; […], nirmatrelvir 250 mg/kg orally, P = 0.0031): significantly decreased viral RNA copies; infectious viral titer (TCID50) in the lungs vs untreated ([13]; […], nirmatrelvir 250 mg/kg orally, P = 0.0066): significantly decreased the viral titer; infectious viral titer (TCID50) in the lungs vs untreated ([13]; […], nirmatrelvir 250 mg/kg orally, P = 0.012): significantly decreased the viral titer; infectious viral titer (TCID50) in the lungs vs untreated ([13]; […], nirmatrelvir 250 mg/kg orally, P = 0.079): no significant difference; histopathological evaluation of lung tissues ([13]; nirmatrelvir 250 mg/kg orally): improved pulmonary conditions; severe lung damage (histopathology categories E and F) ([13]; nirmatrelvir 250 mg/kg orally, P = 0.03): reducing severe lung damage"
